Patent publication US9949479B2 (priority 2015, dated 2018)
Several values for one entry are separate records, joined by “and”; a condition that tells them apart may be missing. Equal entries are not always repeated. Where two headings read alike, the source gives them in different places.

Tests used:
leaf blight [1] = format: in vivo; settings: dose as in E145
wheat scab [2] = format: in vivo, Fusarium spp.
rust [3] = format: in vivo
powdery mildew fungus = format: in vivo; settings: seed treatment; dose as in E133
rust [4] = format: in vivo; settings: dose as in E162
[5] = format: in vivo, wheat
Tri5 gene = format: cell-based, Fusarium asiaticum
powdery mildew [6] = format: in vivo; settings: dose as in E162
powdery mildew [7] = format: in vivo
[8] = format: in vivo, barley; settings: dose as in E154
leaf blight [9] = format: in vivo; settings: dose as in E162
wheat scab [10] = format: in vivo, Fusarium spp.; remark: listed apart in the source
[11] = format: in vivo, wheat; settings: vs control; dose as in E145
wheat scab [12] = format: in vivo, Fusarium spp.; remark: listed apart in the source
[13] = test system: DON toxin synthesis capability of thalli; parameters: species or system Fusarium spp.; settings: in vivo
[14] = Serial 11: jinggangmycin 36 g ai./mu alone
[15] = Serial 12: jinggangmycin 18 g ai./mu alone
[16] = Serial 13: jinggangmycin 15 g ai./mu alone
[17] = Serial 14: jinggangmycin 7.5 g ai./mu alone
[18] = Serial 15: jinggangmycin 5 g ai./mu alone
[19] = Serial 16: jinggangmycin 2.5 g ai./mu alone
[20] = Serial 17: jinggangmycin 3 g ai./mu alone
[21] = Serial 18: jinggangmycin 1.5 g ai./mu alone
[22] = Serial 19: jinggangmycin 1 g ai./mu alone
[23] = Serial 20: jinggangmycin 0.5 g ai./mu alone
[24] = Serial 21: metconazole 20 g ai./mu alone
[25] = Serial 22: metconazole 18 g ai./mu alone
[26] = Serial 23: metconazole 16 g ai./mu alone
[27] = Serial 24: metconazole 10 g ai./mu alone
[28] = Serial 25: metconazole 9 g ai./mu alone
[29] = Serial 26: metconazole 8 g ai./mu alone
[30] = Serial 27: metconazole 6 g ai./mu alone
[31] = Serial 28: metconazole 3 g ai./mu alone

OCC1=C[C@H](NC2C[C@H](CO)[C@@H](OC3O[C@H](CO)[C@@H](O)[C@H](O)[C@H]3O)[C@H](O)[C@H]2O)[C@H](O)[C@@H](O)[C@@H]1O (stereo partly drawn) [Jinggangmycin A, jinggangmycin A]
Disease Index Prevention Effect % Leaf Blight (leaf blight [1]): 8.3% and 7.8% and 0% | Disease Index Prevention Effect % Head Blight (wheat scab [2]; [14]): 31.6% | Disease Index Prevention Effect % Head Blight (wheat scab [2]; [15]): 28.9% | Disease Index Prevention Effect % Head Blight (wheat scab [2]; [16]): 24.3% | Disease Index Prevention Effect % Head Blight (wheat scab [2]; [17]): 16.9% | Disease Index Prevention Effect % Head Blight (wheat scab [2]; [18]): 5.2% | Disease Index Prevention Effect % Head Blight (wheat scab [2]; [19]): 0% | Disease Index Prevention Effect % Head Blight (wheat scab [2]; [20]): 0% | Disease Index Prevention Effect % Head Blight (wheat scab [2]; [21]): 0% | Disease Index Prevention Effect % Head Blight (wheat scab [2]; [22]): 0% | Disease Index Prevention Effect % Head Blight (wheat scab [2]; [23]): 0% | Disease Index Prevention Effect % Rust (rust [3]; [14]): 7.6% | Disease Index Prevention Effect % Rust (rust [3]; [15]): 7.2% | Disease Index Prevention Effect % Rust (rust [3]; [16]): 7.2% | Disease Index Prevention Effect % Rust (rust [3]; [17]): 0% | Disease Index Prevention Effect % Rust (rust [3]; [18]): 0% | Disease Index Prevention Effect % Rust (rust [3]; [19]): 0% | Disease Index Prevention Effect % Rust (rust [3]; [20]): 0% | Disease Index Prevention Effect % Rust (rust [3]; [21]): 0% | Disease Index Prevention Effect % Rust (rust [3]; [22]): 0% | Disease Index Prevention Effect % Rust (rust [3]; [23]): 0% | Incidence Prevention Effect % Powdery Mildew (powdery mildew fungus): 0% and 6.5% | Disease Index Prevention Effect % Rust (rust [4]): 5.1% and 3.6% and 0% | Grain Toxin Content (mg of DON/Kg of grain) [5, 14]: 2.61 mg of DON/Kg of grain | Rate of Decrease in Toxin Content in Grains (%) [5, 14]: 59.6% | Grain Toxin Content (mg of DON/Kg of grain) [5, 15]: 2.86 mg of DON/Kg of grain | Rate of Decrease in Toxin Content in Grains (%) [5, 15]: 55.7% | Grain Toxin Content (mg of DON/Kg of grain) [5, 16]: 2.94 mg of DON/Kg of grain | Rate of Decrease in Toxin Content in Grains (%) [5, 16]: 54.5% | Grain Toxin Content (mg of DON/Kg of grain) [5, 17]: 3.42 mg of DON/Kg of grain | Rate of Decrease in Toxin Content in Grains (%) [5, 17]: 47.1% | Grain Toxin Content (mg of DON/Kg of grain) [5, 18]: 3.86 mg of DON/Kg of grain | Rate of Decrease in Toxin Content in Grains (%) [5, 18]: 40.2% | Grain Toxin Content (mg of DON/Kg of grain) [5, 19]: 3.92 mg of DON/Kg of grain | Rate of Decrease in Toxin Content in Grains (%) [5, 19]: 39.3% | Grain Toxin Content (mg of DON/Kg of grain) [5, 20]: 3.96 mg of DON/Kg of grain | Rate of Decrease in Toxin Content in Grains (%) [5, 20]: 38.7% | Grain Toxin Content (mg of DON/Kg of grain) [5, 21]: 4.82 mg of DON/Kg of grain | Rate of Decrease in Toxin Content in Grains (%) [5, 21]: 25.4% | Grain Toxin Content (mg of DON/Kg of grain) [5, 22]: 5.80 mg of DON/Kg of grain | Rate of Decrease in Toxin Content in Grains (%) [5, 22]: 10.2% | Grain Toxin Content (mg of DON/Kg of grain) [5, 23]: 5.86 mg of DON/Kg of grain | Rate of Decrease in Toxin Content in Grains (%) [5, 23]: 9.3% | Rate of Inhibition on Relative Expression Level of Tri5 Gene (Tri5 gene): 66% and 84% and 87% and 90% and 59% | Disease Index Prevention Effect % Powdery Mildew (powdery mildew [6]): 7.3% and 4.4% and 4.5% and 0% | Disease Index Prevention Effect % Powdery Mildew (powdery mildew [7]; Serial 5: preparation 50 g/mu, jinggangmycin 10 g ai./mu alone): 12.6% | Disease Index Prevention Effect % Powdery Mildew (powdery mildew [7]; Serial 6: preparation 37.5 g/mu, jinggangmycin 7.5 g ai./mu alone): 11.9% | Disease Index Prevention Effect % Powdery Mildew (powdery mildew [7]; Serial 7: preparation 15 g/mu, jinggangmycin 3 g ai./mu alone): 0% | Grain Toxin Content [8]: 6.67 mg of DON/Kg of grain and 5.28 mg of DON/Kg of grain and 4.62 mg of DON/Kg of grain and 3.86 mg of DON/Kg of grain and 3.49 mg of DON/Kg of grain | Disease Index Prevention Effect % Leaf Blight (leaf blight [9]): 8.5% and 7.9% and 0%

CC1(C)CCC(Cc2ccc(Cl)cc2)C1(O)Cn1cncn1 (stereo not drawn) [Metconazole]
Theoretical Prevention Effect of Mixed Agent on Head Blight (wheat scab [10]; Abbott method, dose as in E145): 65.8 and 61.3 and 48.4 and 39.6 | Disease Index Prevention Effect % Head Blight (wheat scab [10]; sprayed twice, g ai. agent/mu, Jinggangmycin+Metconazole by row: r16 1+15, r17 3+10, r18 5+5, r19 5+10, r20 5+15, r21 10+3, r22 10+10, r23 10+15, r24 50+3, r25 50+10, r26 50+15, r27 100+5, r28 100+10, Jinggangmycin alone r29 100, r30 50, r31 10, r32 5, r33 3, r34 1, Metconazole alone r35 15, r36 10, r37 5, r38 3, r39 Carbendazim 40): 65.8% and 61.3% and 48.4% and 39.6% | Disease Index Prevention Effect % Head Blight (wheat scab [2]; [24]): 75.1% | Disease Index Prevention Effect % Head Blight (wheat scab [2]; [25]): 74.9% | Disease Index Prevention Effect % Head Blight (wheat scab [2]; [26]): 73.2% | Disease Index Prevention Effect % Head Blight (wheat scab [2]; [27]): 70.1% | Disease Index Prevention Effect % Head Blight (wheat scab [2]; [28]): 67.2% | Disease Index Prevention Effect % Head Blight (wheat scab [2]; [29]): 65.1% | Disease Index Prevention Effect % Head Blight (wheat scab [2]; [30]): 54.8% | Disease Index Prevention Effect % Head Blight (wheat scab [2]; [31]): 28.3% | Disease Index Prevention Effect % Rust (rust [3]; [24]): 91.2% | Disease Index Prevention Effect % Rust (rust [3]; [25]): 88.4% | Disease Index Prevention Effect % Rust (rust [3]; [26]): 85.6% | Disease Index Prevention Effect % Rust (rust [3]; [27]): 82.1% | Disease Index Prevention Effect % Rust (rust [3]; [28]): 82.4% | Disease Index Prevention Effect % Rust (rust [3]; [29]): 79.4% | Disease Index Prevention Effect % Rust (rust [3]; [30]): 72.6% | Disease Index Prevention Effect % Rust (rust [3]; [31]): 30.2% | Incidence Prevention Effect % Powdery Mildew (powdery mildew fungus): 75.0% and 68.5% and 61.0% and 40.0% | Grain Toxin Content (mg of DON/Kg of grain) [5, 24]: 1.11 mg of DON/Kg of grain | Rate of Decrease in Toxin Content in Grains (%) [5, 24]: 82.8% | Grain Toxin Content (mg of DON/Kg of grain) [5, 25]: 0.99 mg of DON/Kg of grain | Rate of Decrease in Toxin Content in Grains (%) [5, 25]: 84.7% | Grain Toxin Content (mg of DON/Kg of grain) [5, 26]: 1.08 mg of DON/Kg of grain | Rate of Decrease in Toxin Content in Grains (%) [5, 26]: 83.3% | Grain Toxin Content (mg of DON/Kg of grain) [5, 27]: 1.34 mg of DON/Kg of grain | Rate of Decrease in Toxin Content in Grains (%) [5, 27]: 79.3% | Grain Toxin Content (mg of DON/Kg of grain) [5, 28]: 1.56 mg of DON/Kg of grain | Rate of Decrease in Toxin Content in Grains (%) [5, 28]: 75.9% | Grain Toxin Content (mg of DON/Kg of grain) [5, 29]: 1.61 mg of DON/Kg of grain | Rate of Decrease in Toxin Content in Grains (%) [5, 29]: 75.1% | Grain Toxin Content (mg of DON/Kg of grain) [5, 30]: 1.89 mg of DON/Kg of grain | Rate of Decrease in Toxin Content in Grains (%) [5, 30]: 70.7% | Grain Toxin Content (mg of DON/Kg of grain) [5, 31]: 3.22 mg of DON/Kg of grain | Rate of Decrease in Toxin Content in Grains (%) [5, 31]: 50.2% | DON Reduction Percentage (%) [11]: 88.4% and 79.9% and 71.4% and 66.6% | Disease Index Prevention Effect % Powdery Mildew (powdery mildew [7]; Serial 8: preparation 50 g/mu, metconazole 10 g ai./mu alone): 83.2% | Disease Index Prevention Effect % Powdery Mildew (powdery mildew [7]; Serial 10: preparation 15 g/mu, metconazole 3 g ai./mu alone): 69.2% | Theoretical Prevention Effect on Head Blight % (wheat scab [12]; Abbott method, dose as in E162): 66.7% and 61.8% and 40.9% and 33.6% | Disease Index Prevention Effect % Head Blight (wheat scab [12]; tank mixture sprayed twice, g ai. agent/mu, Jinggangmycin+Metconazole by row: r11 3+15, r12 5+10, r13 5+5, r14 10+5, r15 50+3, r16 100+3, Jinggangmycin alone r17 100, r18 50, r19 10, r20 5, r21 3, Metconazole alone r22 15, r23 10, r24 5, r25 3, r26 Polyketone 57): 66.7% and 61.8% and 50.9% and 33.6% | Grain Toxin Content [8]: 3.86 mg of DON/Kg of grain and 3.70 mg of DON/Kg of grain and 3.09 mg of DON/Kg of grain and 3.26 mg of DON/Kg of grain | Toxin Reduction Percentage % ([8]; vs control): 54.7% and 56.6% and 63.8% and 61.8% | DON Synthesis Capability [13]: 20.16 and 19.80 and 19.96 and 19.54 and 19.20 and 19.38
